The results in this text go back to ChEMBL document CHEMBL6103593, “Design of Selective BRD4 Inhibitors for the Treatment of Autosomal Dominant Polycystic Kidney Disease” (J Med Chem, 2025).

Test [1] addresses Histone acetyltransferase p300 (Homo sapiens, UniProt Q09472). Put plainly: Inhibition of EP300 (1039 to 1161 residues) (unknown origin) extracted from Escherichia coli […] codon plus RIL cells incubated for 4 hrs by fluorescence anisotropy. (In general: In fluorescence polarisation assays a small probe gives low polarisation when free and higher when bound to something large.)

For test [2], the target named is T1, Bromodomain-containing protein 2 (Homo sapiens, UniProt P25440). In words: Inhibition of BRD2 bromodomain 2 (348 to 455 residues) (unknown origin) extracted from Escherichia coli […] codon plus RIL cells incubated for 4 hrs by fluorescence anisotropy.
T1 sequence (P25440 whole entry, the tested form may be a part): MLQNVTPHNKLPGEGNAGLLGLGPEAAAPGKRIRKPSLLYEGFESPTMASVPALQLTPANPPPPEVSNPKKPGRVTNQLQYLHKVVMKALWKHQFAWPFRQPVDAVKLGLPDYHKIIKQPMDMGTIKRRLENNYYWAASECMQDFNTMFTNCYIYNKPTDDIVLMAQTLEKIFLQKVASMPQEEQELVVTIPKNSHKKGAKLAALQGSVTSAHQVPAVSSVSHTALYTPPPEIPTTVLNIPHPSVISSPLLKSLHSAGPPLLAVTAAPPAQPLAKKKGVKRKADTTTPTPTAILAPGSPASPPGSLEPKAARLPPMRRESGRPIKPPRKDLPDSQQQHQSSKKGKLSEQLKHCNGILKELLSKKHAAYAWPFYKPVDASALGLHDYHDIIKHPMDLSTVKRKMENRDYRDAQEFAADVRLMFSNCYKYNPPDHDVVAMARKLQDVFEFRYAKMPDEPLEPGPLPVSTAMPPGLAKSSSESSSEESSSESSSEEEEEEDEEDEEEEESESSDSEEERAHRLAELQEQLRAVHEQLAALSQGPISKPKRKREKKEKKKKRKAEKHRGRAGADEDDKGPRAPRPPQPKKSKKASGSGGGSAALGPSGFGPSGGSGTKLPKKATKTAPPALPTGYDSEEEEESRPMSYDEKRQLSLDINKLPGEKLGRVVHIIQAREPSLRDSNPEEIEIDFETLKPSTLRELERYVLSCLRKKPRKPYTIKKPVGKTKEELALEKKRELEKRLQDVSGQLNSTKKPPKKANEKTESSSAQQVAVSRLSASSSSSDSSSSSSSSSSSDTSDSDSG
Test [3] addresses T1, Bromodomain-containing protein 2. In words: Inhibition of BRD2 bromodomain 1 (67 to 200 residues) (unknown origin) extracted from Escherichia coli […] codon plus RIL cells incubated for 4 hrs by fluorescence anisotropy.
Test [4] has as its target T2, Bromodomain-containing protein 4 (Homo sapiens, UniProt O60885). In words: Inhibition of BRD4 bromodomain 1 (44 to 168 residues) (unknown origin) extracted from Escherichia coli […] codon plus RIL cells incubated for 4 hrs by fluorescence anisotropy.
The target in test [5] is T2, Bromodomain-containing protein 4. Put plainly: Inhibition of BRD4 bromodomain 2 (332 to 460 residues) (unknown origin) extracted from Escherichia coli […] codon plus RIL cells incubated for 4 hrs by fluorescence anisotropy.

Sequence of Histone acetyltransferase p300 (Q09472 whole entry, the tested form may be a part): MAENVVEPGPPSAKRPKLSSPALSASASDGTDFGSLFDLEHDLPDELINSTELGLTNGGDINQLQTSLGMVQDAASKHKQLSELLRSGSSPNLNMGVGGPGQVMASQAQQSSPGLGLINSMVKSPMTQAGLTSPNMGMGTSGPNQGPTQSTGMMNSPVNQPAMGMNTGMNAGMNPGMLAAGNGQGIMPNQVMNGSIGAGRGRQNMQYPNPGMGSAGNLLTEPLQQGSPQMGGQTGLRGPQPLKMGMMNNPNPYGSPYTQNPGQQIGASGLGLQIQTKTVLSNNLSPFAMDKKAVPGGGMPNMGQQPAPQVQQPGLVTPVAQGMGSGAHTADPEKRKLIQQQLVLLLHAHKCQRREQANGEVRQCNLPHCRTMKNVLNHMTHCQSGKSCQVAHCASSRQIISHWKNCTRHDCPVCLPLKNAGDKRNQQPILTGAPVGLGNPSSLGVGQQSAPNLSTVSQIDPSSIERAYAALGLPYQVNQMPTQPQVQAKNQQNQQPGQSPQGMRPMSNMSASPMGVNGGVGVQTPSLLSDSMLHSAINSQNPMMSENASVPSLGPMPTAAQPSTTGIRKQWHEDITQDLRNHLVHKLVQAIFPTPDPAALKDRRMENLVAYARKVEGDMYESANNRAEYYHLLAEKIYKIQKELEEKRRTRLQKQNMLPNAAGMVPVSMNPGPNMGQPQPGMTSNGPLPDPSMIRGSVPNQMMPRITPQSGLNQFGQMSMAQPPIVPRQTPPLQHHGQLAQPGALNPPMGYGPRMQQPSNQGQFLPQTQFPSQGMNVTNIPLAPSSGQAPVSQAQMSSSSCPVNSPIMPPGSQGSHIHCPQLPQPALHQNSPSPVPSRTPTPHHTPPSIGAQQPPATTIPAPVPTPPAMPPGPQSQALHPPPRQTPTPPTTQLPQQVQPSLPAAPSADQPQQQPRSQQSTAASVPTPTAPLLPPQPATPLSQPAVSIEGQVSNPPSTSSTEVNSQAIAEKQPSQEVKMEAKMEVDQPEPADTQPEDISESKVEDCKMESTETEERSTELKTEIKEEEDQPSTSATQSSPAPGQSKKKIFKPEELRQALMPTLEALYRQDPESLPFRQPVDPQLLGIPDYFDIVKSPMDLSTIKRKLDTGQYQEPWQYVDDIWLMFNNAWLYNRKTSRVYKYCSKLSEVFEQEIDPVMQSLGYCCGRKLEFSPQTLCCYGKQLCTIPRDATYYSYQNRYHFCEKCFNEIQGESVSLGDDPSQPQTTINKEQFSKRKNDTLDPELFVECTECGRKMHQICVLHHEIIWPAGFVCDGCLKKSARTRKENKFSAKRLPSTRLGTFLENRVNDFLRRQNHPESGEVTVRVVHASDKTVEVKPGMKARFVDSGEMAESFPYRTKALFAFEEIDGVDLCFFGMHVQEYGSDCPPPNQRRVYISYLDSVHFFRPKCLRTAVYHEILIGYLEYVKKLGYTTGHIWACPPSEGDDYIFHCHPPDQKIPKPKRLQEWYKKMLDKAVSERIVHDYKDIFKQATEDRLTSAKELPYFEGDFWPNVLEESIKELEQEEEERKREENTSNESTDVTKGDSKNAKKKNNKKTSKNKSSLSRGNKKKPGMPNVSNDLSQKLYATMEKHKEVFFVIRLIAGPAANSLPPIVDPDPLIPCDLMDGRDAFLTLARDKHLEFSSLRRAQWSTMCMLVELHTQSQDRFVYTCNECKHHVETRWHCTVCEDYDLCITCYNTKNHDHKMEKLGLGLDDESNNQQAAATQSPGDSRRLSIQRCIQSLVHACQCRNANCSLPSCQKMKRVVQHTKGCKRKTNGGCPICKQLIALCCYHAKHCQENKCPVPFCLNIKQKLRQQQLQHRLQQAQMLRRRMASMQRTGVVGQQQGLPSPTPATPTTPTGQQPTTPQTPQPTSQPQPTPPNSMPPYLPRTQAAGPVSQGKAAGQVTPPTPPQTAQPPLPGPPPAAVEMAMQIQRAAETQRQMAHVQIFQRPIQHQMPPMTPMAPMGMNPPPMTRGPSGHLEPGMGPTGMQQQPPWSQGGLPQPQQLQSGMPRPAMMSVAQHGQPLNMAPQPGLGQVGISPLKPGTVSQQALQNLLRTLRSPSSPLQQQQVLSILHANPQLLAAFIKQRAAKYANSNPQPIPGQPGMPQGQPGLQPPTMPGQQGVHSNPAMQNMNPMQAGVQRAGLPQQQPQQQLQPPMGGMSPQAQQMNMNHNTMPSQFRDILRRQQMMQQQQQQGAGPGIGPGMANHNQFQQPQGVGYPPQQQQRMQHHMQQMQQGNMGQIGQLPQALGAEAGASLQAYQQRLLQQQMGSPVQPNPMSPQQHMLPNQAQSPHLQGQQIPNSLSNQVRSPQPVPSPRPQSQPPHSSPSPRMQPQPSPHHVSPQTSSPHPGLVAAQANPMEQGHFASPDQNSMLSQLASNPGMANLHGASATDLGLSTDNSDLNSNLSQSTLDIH

One may read the IC50 as the point on the concentration scale where inhibition reaches its midpoint. For `Cc1cc(Nc2nn(C)c3ccccc23)nc(Nc2ccc3c(c2)N(C(C)C)[C@H](C)C(=O)N3C)n1`, the figures for the IC50 in test [1], in test [2] and in test [3] were > 1000 nM, 291 nM and 50.5 nM, respectively.
As for `CCc1cc(Nc2cccc(Cl)c2)nc(Nc2ccc3c(c2)N(C(C)C)[C@H](C)C(=O)N3C)n1`, the IC50 in test [4] is 504 nM; in test [5] it was 2070 nM.
Take `CCc1cc(Nc2nn(C)c3ccccc23)nc(Nc2ccc3c(c2)N(C(C)C)[C@H](C)C(=O)N3C)n1`: the IC50 is > 1000 nM in test [1], 302 nM in test [2] and 29.3 nM in test [3].
With `CC(C)N1c2cc(Nc3nccc(Nc4nn(C)c5ccccc45)n3)ccc2N(C)C(=O)[C@H]1C`, the IC50 in test [1] was > 1000 nM; in test [2], 233 nM; in test [3], 31.8 nM.
